What all share (type): biochemical
Holding throughout (details): 20 nM

The target of one assay is T1, PDE4A1A (Homo sapiens, UniProt P27815).
T1 construct: purchased BPS 60040
Nature of the assay: PDE4 inhibitory activity assay (FAM-cAMP enzymatic reaction), PDE4A1A. Put shortly:
(§1)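 Human PDE4A1A, PDE4B1 or PDE4D2 preincubated with compound 15 min at room temperature, then FAM-cAMP substrate added; reaction 30 min at room temperature before stop solution and further 60 min. Fluorescence read on multilabel counter; IC50 fitted from inhibition rates.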

The target in another assay is T2, PDE4B1 (Homo sapiens, UniProt Q07343).
T2 construct: purchased BPS 60041
Nature of the assay: PDE4 inhibitory activity assay (FAM-cAMP enzymatic reaction), PDE4B1. An outline of the steps: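 Each isoform is incubated with test compound for 15 min at room temperature before FAM-cAMP substrate starts a 30-min reaction.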

For another assay, the target named is PDE4D2 (Homo sapiens, UniProt Q08499). Kind of assay: PDE4 inhibitory activity assay (FAM-cAMP enzymatic reaction), PDE4D2. Put shortly:
as §1

PDE4D2, sequence (Q08499 303-809): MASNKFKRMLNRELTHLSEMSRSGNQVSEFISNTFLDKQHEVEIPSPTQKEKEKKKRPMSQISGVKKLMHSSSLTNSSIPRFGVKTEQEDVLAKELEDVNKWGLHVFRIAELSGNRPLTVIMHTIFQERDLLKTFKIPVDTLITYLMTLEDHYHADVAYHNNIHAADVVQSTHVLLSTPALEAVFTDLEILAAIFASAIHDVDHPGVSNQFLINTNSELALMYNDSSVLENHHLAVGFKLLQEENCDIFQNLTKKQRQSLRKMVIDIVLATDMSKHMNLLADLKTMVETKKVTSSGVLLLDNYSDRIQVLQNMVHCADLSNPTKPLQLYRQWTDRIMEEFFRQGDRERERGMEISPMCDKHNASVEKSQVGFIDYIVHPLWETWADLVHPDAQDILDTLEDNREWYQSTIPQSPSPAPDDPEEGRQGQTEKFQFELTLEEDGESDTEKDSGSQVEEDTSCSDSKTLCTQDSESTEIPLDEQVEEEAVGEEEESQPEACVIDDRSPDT
T1 sequence (P27815 1-647 isoform P27815-4): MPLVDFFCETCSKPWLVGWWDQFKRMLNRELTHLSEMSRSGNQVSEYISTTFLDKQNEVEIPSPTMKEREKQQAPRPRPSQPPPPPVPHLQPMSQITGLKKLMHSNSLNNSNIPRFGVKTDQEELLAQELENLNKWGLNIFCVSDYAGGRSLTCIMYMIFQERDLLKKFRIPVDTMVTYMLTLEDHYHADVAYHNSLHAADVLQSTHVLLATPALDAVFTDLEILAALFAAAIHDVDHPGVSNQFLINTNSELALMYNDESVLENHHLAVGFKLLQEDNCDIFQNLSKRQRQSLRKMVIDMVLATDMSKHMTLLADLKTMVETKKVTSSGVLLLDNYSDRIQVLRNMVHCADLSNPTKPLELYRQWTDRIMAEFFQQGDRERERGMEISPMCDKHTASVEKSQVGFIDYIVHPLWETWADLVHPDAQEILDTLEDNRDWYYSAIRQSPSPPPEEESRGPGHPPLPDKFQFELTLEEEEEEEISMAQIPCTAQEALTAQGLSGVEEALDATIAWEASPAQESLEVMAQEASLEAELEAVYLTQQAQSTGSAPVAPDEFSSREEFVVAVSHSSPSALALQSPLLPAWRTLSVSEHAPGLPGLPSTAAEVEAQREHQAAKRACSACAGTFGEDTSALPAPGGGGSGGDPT
T2 sequence (Q07343 whole entry): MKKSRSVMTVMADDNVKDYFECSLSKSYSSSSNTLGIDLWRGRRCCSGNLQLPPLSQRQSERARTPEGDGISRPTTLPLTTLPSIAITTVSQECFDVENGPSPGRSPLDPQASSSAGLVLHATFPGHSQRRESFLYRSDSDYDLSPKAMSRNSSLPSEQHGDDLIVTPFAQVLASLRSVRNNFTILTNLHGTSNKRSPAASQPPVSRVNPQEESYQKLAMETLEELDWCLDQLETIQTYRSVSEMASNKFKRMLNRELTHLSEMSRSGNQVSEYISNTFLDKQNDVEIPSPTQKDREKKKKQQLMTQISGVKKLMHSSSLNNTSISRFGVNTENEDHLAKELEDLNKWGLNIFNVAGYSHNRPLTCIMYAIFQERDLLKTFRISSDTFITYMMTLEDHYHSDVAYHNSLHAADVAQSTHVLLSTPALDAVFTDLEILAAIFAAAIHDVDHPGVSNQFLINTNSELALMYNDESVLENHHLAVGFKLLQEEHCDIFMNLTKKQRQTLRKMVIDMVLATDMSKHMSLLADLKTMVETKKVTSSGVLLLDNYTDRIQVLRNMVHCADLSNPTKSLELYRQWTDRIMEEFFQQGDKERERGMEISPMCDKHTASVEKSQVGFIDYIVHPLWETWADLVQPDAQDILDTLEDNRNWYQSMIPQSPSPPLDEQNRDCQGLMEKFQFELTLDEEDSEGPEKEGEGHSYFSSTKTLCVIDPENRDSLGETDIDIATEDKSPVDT

For the compound `CCOc1nc([C@@H](CS(C)(=O)=O)n2c(=O)n(C)c3cc(-c4ccccc4CC)cnc32)ccc1OC` [Ex. 82, (S)-3-(1-(6-ethoxy-5-methoxypyridin-2-yl)-2-(methylsulfonyl)ethyl)-6-(2-ethylphenyl)-1-methyl-1H-imidazo[4,5-b]pyridin-2(3H)-one], the “PDE4 A1 inhibitory effect at 20 nM” value at PDE4A1A is recorded as “+”. Moreover, on PDE4B1, the “PDE4 B1 inhibitory effect at 20 nM” value is on record as “+”. Also, the “PDE4 D2 inhibitory effect at 20 nM” value on PDE4D2 is “+”.

Consider `CCOc1nc([C@@H](CS(C)(=O)=O)n2c(=O)[nH]c3cc(-c4ccccc4OC)cnc32)ccc1OC` [Ex. 83, (S)-3-(1-(6-ethoxy-5-methoxypyridin-2-yl)-2-(methylsulfonyl)ethyl)-6-(2-methoxyphenyl)-1H-imidazo[4,5-b]pyridin-2(3H)-one], for which the “PDE4 A1 inhibitory effect at 20 nM” value at PDE4A1A is listed as “+”. Moreover, the “PDE4 B1 inhibitory effect at 20 nM” value at PDE4B1 was “+”. In addition, the “PDE4 D2 inhibitory effect at 20 nM” value at PDE4D2 is listed as “+”.

Consider `CCOc1nc([C@@H](CS(C)(=O)=O)n2c(=O)n(C)c3cc(-c4ccccc4OC)cnc32)ccc1OC` [Ex. 84, (S)-3-(1-(6-ethoxy-5-methoxypyridin-2-yl)-2-(methylsulfonyl)ethyl)-6-(2-methoxyphenyl)-1-methyl-1H-imidazo[4,5-b]pyridin-2(3H)-one], for which the “PDE4 A1 inhibitory effect at 20 nM” value on PDE4A1A is given as “+”. For the same compound, on PDE4B1, the “PDE4 B1 inhibitory effect at 20 nM” value is “+”. At PDE4D2, the “PDE4 D2 inhibitory effect at 20 nM” value is recorded as “+”.

For the compound `CCOc1nc([C@@H](CS(C)(=O)=O)n2c(=O)[nH]c3cc(-c4ccccc4C(F)(F)F)cnc32)ccc1OC` [Ex. 85, (S)-3-(1-(6-ethoxy-5-methoxypyridin-2-yl)-2-(methylsulfonyl)ethyl)-6-(2-(trifluoromethyl)phenyl)-1H-imidazo[4,5-b]pyridin-2(3H)-one], the “PDE4 A1 inhibitory effect at 20 nM” value on PDE4A1A is “+”. Moreover, at PDE4B1, the “PDE4 B1 inhibitory effect at 20 nM” value was “+”. For the same compound, the “PDE4 D2 inhibitory effect at 20 nM” value on PDE4D2 was “+”.

Take `CCOc1nc([C@@H](CS(C)(=O)=O)n2c(=O)n(C)c3cc(-c4ccccc4C(F)(F)F)cnc32)ccc1OC` [Ex. 86, (S)-3-(1-(6-ethoxy-5-methoxypyridin-2-yl)-2-(methylsulfonyl)ethyl)-6-(2-(trifluoromethyl)phenyl)-1-methyl-1H-imidazo[4,5-b]pyridin-2(3H)-one]: on PDE4A1A, the “PDE4 A1 inhibitory effect at 20 nM” value is “+”. Also, the “PDE4 B1 inhibitory effect at 20 nM” value at PDE4B1 is recorded as “+”. Also, the “PDE4 D2 inhibitory effect at 20 nM” value at PDE4D2 was “+”.

In the case of `CCOc1nc([C@@H](CS(C)(=O)=O)n2c(=O)[nH]c3cc(-c4ccccc4C4CC4)cnc32)ccc1OC` [Ex. 87, (S)-6-(2-cyclopropylphenyl)-3-(1-(6-ethoxy-5-methoxypyridin-2-yl)-2-(methylsulfonyl)ethyl)-1H-imidazo[4,5-b]pyridin-2(3H)-one], on PDE4A1A, the “PDE4 A1 inhibitory effect at 20 nM” value is on record as “+”. The “PDE4 B1 inhibitory effect at 20 nM” value at PDE4B1 was “+”. Also, at PDE4D2, the “PDE4 D2 inhibitory effect at 20 nM” value is “+”.

On to `CCOc1nc([C@@H](CS(C)(=O)=O)n2c(=O)[nH]c3cc(-c4c(F)cccc4F)cnc32)ccc1OC` [Ex. 88, (S)-6-(2,6-difluorophenyl)-3-(1-(6-ethoxy-5-methoxypyridin-2-yl)-2-(methylsulfonyl)ethyl)-1H-imidazo[4,5-b]pyridin-2(3H)-one], for which the “PDE4 A1 inhibitory effect at 20 nM” value on PDE4A1A is “+”. Moreover, the “PDE4 B1 inhibitory effect at 20 nM” value at PDE4B1 was “+”. Moreover, the “PDE4 D2 inhibitory effect at 20 nM” value on PDE4D2 is listed as “+”.

As to `CCOc1nc([C@@H](CS(C)(=O)=O)n2c(=O)n(C)c3cc(-c4c(F)cccc4F)cnc32)ccc1OC` [Ex. 89, (S)-6-(2,6-difluorophenyl)-3-(1-(6-ethoxy-5-methoxypyridin-2-yl)-2-(methylsulfonyl)ethyl)-1-methyl-1H-imidazo[4,5-b]pyridin-2(3H)-one], on PDE4A1A, the “PDE4 A1 inhibitory effect at 20 nM” value is recorded as “+”. Further, the “PDE4 B1 inhibitory effect at 20 nM” value on PDE4B1 was “+”. The “PDE4 D2 inhibitory effect at 20 nM” value on PDE4D2 is “+”.

In the case of `CCOc1nc([C@@H](CS(C)(=O)=O)n2c(=O)[nH]c3cc(-c4cccc(F)c4F)cnc32)ccc1OC` [Ex. 90, (S)-6-(2,3-difluorophenyl)-3-(1-(6-ethoxy-5-methoxypyridin-2-yl)-2-(methylsulfonyl)ethyl)-1H-imidazo[4,5-b]pyridin-2(3H)-one], the “PDE4 A1 inhibitory effect at 20 nM” value at PDE4A1A is listed as “+”. In addition, the “PDE4 B1 inhibitory effect at 20 nM” value on PDE4B1 was “+”. Moreover, the “PDE4 D2 inhibitory effect at 20 nM” value at PDE4D2 is reported as “+”.

On to `CCOc1nc([C@@H](CS(C)(=O)=O)n2c(=O)n(C)c3cc(-c4cccc(F)c4F)cnc32)ccc1OC` [Ex. 91, (S)-6-(2,3-difluorophenyl)-3-(1-(6-ethoxy-5-methoxypyridin-2-yl)-2-(methylsulfonyl)ethyl)-1-methyl-1H-imidazo[45-b]pyridin-2(3H)-one], for which the “PDE4 A1 inhibitory effect at 20 nM” value at PDE4A1A is given as “+”. The “PDE4 B1 inhibitory effect at 20 nM” value on PDE4B1 is reported as “+”. Moreover, the “PDE4 D2 inhibitory effect at 20 nM” value on PDE4D2 is given as “+”.

In the case of `CCOc1nc([C@@H](CS(C)(=O)=O)n2c(=O)[nH]c3cc(-c4cc(F)ccc4F)cnc32)ccc1OC` [Ex. 92, (S)-6-(2,5-difluorophenyl)-3-(1-(6-ethoxy-5-methoxypyridin-2-yl)-2-(methylsulfonyl)ethyl)-1H-imidazo[4,5-b]pyridin-2(3H)-one], the “PDE4 A1 inhibitory effect at 20 nM” value on PDE4A1A is “+”. The “PDE4 B1 inhibitory effect at 20 nM” value at PDE4B1 is “+”. Further, the “PDE4 D2 inhibitory effect at 20 nM” value on PDE4D2 was “+”.

In the case of `CCOc1nc([C@@H](CS(C)(=O)=O)n2c(=O)n(C)c3cc(-c4cc(F)ccc4F)cnc32)ccc1OC` [Ex. 93, (S)-6-(2,5-difluorophenyl)-3-(1-(6-ethoxy-5-methoxypyridin-2-yl)-2-(methylsulfonyl)ethyl)-1-methyl-1H-imidazo[4,5-b]pyridin-2(3H)-one], the “PDE4 A1 inhibitory effect at 20 nM” value at PDE4A1A is “+”. Besides, on PDE4B1, the “PDE4 B1 inhibitory effect at 20 nM” value was “+”. In addition, the “PDE4 D2 inhibitory effect at 20 nM” value on PDE4D2 is “+”.

Consider `CCOc1nc([C@@H](CS(C)(=O)=O)n2c(=O)[nH]c3cc(-c4ccc(F)cc4F)cnc32)ccc1OC` [Ex. 94, (S)-6-(2,4-difluorophenyl)-3-(1-(6-ethoxy-5-methoxypyridin-2-yl)-2-(methylsulfonyl)ethyl)-1H-imidazo[4,5-b]pyridin-2(3H)-one], for which the “PDE4 A1 inhibitory effect at 20 nM” value on PDE4A1A was “+”. Moreover, on PDE4B1, the “PDE4 B1 inhibitory effect at 20 nM” value was “+”. Further, the “PDE4 D2 inhibitory effect at 20 nM” value on PDE4D2 is “+”.

For `CCOc1nc([C@@H](CS(C)(=O)=O)n2c(=O)n(C)c3cc(-c4ccc(F)cc4F)cnc32)ccc1OC` [Ex. 95, (S)-6-(2,4-difluorophenyl)-3-(1-(6-ethoxy-5-methoxypyridin-2-yl)-2-(methylsulfonyl)ethyl)-1-methyl-1H-imidazo[4,5-b]pyridin-2(3H)-one], at PDE4A1A, the “PDE4 A1 inhibitory effect at 20 nM” value is reported as “+”. Besides, the “PDE4 B1 inhibitory effect at 20 nM” value on PDE4B1 is “+”. The “PDE4 D2 inhibitory effect at 20 nM” value at PDE4D2 is recorded as “+”.

On to `CCOc1nc([C@@H](CS(C)(=O)=O)n2c(=O)[nH]c3cc(-c4cc(F)c(F)cc4F)cnc32)ccc1OC` [Ex. 96, (S)-6-(2,4,5-trifluorophenyl)-3-(1-(6-ethoxy-5-methoxypyridin-2-yl)-2-(methylsulfonyl)ethyl)-1H-imidazo[4,5-b]pyridin-2(3H)-one], for which the “PDE4 A1 inhibitory effect at 20 nM” value on PDE4A1A is “+”. Besides, at PDE4B1, the “PDE4 B1 inhibitory effect at 20 nM” value is listed as “+”. In addition, at PDE4D2, the “PDE4 D2 inhibitory effect at 20 nM” value is listed as “+”.

Consider `CCOc1nc([C@@H](CS(C)(=O)=O)n2c(=O)n(C)c3cc(-c4cc(F)c(F)cc4F)cnc32)ccc1OC` [Ex. 97, (S)-6-(2,4,5-trifluorophenyl)-3-(1-(6-ethoxy-5-methoxypyridin-2-yl)-2-(methylsulfonyl)ethyl)-1-methyl-1H-imidazo[4,5-b]pyridin-2(3H)-one], for which the “PDE4 A1 inhibitory effect at 20 nM” value on PDE4A1A is on record as “+”. Further, the “PDE4 B1 inhibitory effect at 20 nM” value at PDE4B1 is reported as “+”. For the same compound, on PDE4D2, the “PDE4 D2 inhibitory effect at 20 nM” value is given as “+”.

For the compound `CCOc1nc([C@H](CS(C)(=O)=O)n2c(=O)[nH]c3cc(-c4cc(F)ccc4F)cnc32)ccc1OC` [Ex. 98, (R)-6-(2,5-difluorophenyl)-3-(1-(6-ethoxy-5-methoxypyridin-2-yl)-2-(methylsulfonyl)ethyl)-1H-imidazo[4,5-b]pyridin-2(3H)-one], the “PDE4 A1 inhibitory effect at 20 nM” value on PDE4A1A is listed as “−”. Besides, on PDE4B1, the “PDE4 B1 inhibitory effect at 20 nM” value is “−”. The “PDE4 D2 inhibitory effect at 20 nM” value on PDE4D2 was “−”.

In the case of `CCOc1nc([C@@H](CS(C)(=O)=O)n2c(=O)[nH]c3cc(-c4ccc(C)cc4C)cnc32)ccc1OC` [Ex. 99, (S)-6-(2,4-dimethylphenyl)-3-(1-(6-ethoxy-5-methoxypyridin-2-yl)-2-(methylsulfonyl)ethyl)-1H-imidazo[4,5-b]pyridin-2(3H)-one], the “PDE4 A1 inhibitory effect at 20 nM” value on PDE4A1A was “+”. On PDE4B1, the “PDE4 B1 inhibitory effect at 20 nM” value is “+”. Besides, the “PDE4 D2 inhibitory effect at 20 nM” value on PDE4D2 is “+”.

For `CCOc1nc([C@@H](CS(C)(=O)=O)n2c(=O)n(C)c3cc(-c4ccc(C)cc4C)cnc32)ccc1OC` [Ex. 100, (S)-6-(2,4-dimethylphenyl)-3-(1-(6-ethoxy-5-methoxypyridin-2-yl)-2-(methylsulfonyl)ethyl)-1-methyl-1H-imidazo[4,5-b]pyridin-2(3H)-one], the “PDE4 A1 inhibitory effect at 20 nM” value at PDE4A1A is “+”. Moreover, the “PDE4 B1 inhibitory effect at 20 nM” value on PDE4B1 is given as “+”. For the same compound, at PDE4D2, the “PDE4 D2 inhibitory effect at 20 nM” value was “+”.

Turning to `CCOc1nc([C@@H](CS(C)(=O)=O)n2c(=O)[nH]c3cc(-c4cc(C)ccc4C)cnc32)ccc1OC` [Ex. 101, (S)-6-(2,5-dimethylphenyl)-3-(1-(6-ethoxy-5-methoxypyridin-2-yl)-2-(methylsulfonyl)ethyl)-1H-imidazo[4,5-b]pyridin-2(3H)-one], the “PDE4 A1 inhibitory effect at 20 nM” value on PDE4A1A is “+”. Also, at PDE4B1, the “PDE4 B1 inhibitory effect at 20 nM” value is “+”. The “PDE4 D2 inhibitory effect at 20 nM” value on PDE4D2 is given as “+”.

`CCOc1nc([C@@H](CS(C)(=O)=O)n2c(=O)n(C)c3cc(-c4cc(C)ccc4C)cnc32)ccc1OC` [Ex. 102, (S)-6-(2,5-dimethylphenyl)-3-(1-(6-ethoxy-5-methoxypyridin-2-yl)-2-(methylsulfonyl)ethyl)-1-methyl-1H-imidazo[4,5-b]pyridin-2(3H)-one]: the “PDE4 A1 inhibitory effect at 20 nM” value on PDE4A1A was “+”. In addition, the “PDE4 B1 inhibitory effect at 20 nM” value at PDE4B1 is reported as “+”. Also, on PDE4D2, the “PDE4 D2 inhibitory effect at 20 nM” value is listed as “+”.

The record behind these values is US20230141101A1, “PDE4 INHIBITOR COMPOUND AND MEDICAL USE THEREOF” (Suzhou Longbotai Pharmaceuticals Co., Ltd., priority 2020, published 2023).
